According to patent US9290478B2, “Substituted quinoxalines as FGFR kinase inhibitors” (ASTEX THERAPEUTICS LTD, priority 2010, dated 2016):

Experiments:
[1] = target: FGFR2 (h) (Homo sapiens, UniProt P21802); assay: FGFR2 (enzymatic assay), TR-FRET; type: biochemical; conditions: 0.4 μM ATP; read-out: FGFR2 pIC50 (converted)
Description: (§1) In a final reaction volume of 30 μL, FGFR2 (h) (150 ng/ml) was incubated with 50 mM HEPES pH 7.5, 6 mM MnCl2, 1 mM DTT, 0.1 mM Na3VO4, 0.01% Triton-X-100, 500 nM Btn-Flt3 and 0.4 μM ATP in the presence of compound (1% DMSO final). After incubation for 60 minutes at room temperature the reaction was stopped with 2.27 nM EU-anti P-Tyr, 7 mM EDTA, 31.25 nM SA-XL-665 and 0.02% BSA which was present for 60 minutes at room temperature. Time-Resolved Fluorescence Resonance Energy Transfer (TR-FRET) signal (ex340 nm. Em 620 nm, em 655 nm) was measured afterwards and results are expressed in (Relative Fluorescence Units). In this assay, the inhibitory effect of different compound concentrations (range 10 μM to 0.1 nM) was determined and used to calculate an IC50 (M) and pIC50 (−log IC50) value.

[2] = target: KDR (h) (VEGFR2) (Homo sapiens, UniProt P35968); assay: KDR (VEGFR2) (enzymatic assay), TR-FRET; type: biochemical; conditions: 3 μM ATP; read-out: VEGFR2 (KDR) pIC50 (converted)
Chain of KDR (h) (VEGFR2) (P35968 20-1356): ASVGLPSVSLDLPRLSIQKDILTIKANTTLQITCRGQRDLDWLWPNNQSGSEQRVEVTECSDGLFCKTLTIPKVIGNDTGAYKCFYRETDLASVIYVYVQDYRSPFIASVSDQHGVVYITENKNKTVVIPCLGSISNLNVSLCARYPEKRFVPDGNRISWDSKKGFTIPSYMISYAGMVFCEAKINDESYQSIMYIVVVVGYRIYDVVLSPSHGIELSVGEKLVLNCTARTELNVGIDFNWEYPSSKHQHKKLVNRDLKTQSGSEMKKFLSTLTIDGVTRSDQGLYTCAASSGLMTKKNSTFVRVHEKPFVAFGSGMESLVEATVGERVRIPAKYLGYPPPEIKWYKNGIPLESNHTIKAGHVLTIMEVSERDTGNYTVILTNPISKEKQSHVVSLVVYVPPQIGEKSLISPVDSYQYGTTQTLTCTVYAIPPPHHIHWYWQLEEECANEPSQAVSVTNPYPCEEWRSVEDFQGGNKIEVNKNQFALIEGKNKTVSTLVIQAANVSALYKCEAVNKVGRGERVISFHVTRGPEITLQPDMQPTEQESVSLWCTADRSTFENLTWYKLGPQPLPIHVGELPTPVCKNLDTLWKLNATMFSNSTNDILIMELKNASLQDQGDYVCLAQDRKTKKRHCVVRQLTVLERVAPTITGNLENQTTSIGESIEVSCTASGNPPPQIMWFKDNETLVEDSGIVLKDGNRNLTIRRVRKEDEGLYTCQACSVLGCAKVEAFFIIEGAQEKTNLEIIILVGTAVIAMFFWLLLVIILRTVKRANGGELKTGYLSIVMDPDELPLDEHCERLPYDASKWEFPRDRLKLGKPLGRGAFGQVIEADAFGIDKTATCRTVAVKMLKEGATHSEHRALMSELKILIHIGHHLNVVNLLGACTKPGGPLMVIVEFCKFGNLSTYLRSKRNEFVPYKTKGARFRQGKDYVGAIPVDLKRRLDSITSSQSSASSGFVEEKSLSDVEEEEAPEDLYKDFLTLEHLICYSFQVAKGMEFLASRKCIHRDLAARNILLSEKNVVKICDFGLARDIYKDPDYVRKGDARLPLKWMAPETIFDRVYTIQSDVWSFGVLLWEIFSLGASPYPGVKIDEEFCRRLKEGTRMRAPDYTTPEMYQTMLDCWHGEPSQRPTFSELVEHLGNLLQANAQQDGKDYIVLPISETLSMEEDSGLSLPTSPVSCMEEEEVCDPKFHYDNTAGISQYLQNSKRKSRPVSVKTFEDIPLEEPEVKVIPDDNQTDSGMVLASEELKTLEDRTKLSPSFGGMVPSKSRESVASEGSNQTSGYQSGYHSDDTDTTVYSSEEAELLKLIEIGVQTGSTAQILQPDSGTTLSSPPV
Description: KDR (VEGFR2) (Enzymatic Assay)
as §1, with “30 μL, KDR (h) (150” for “30 μL, FGFR2 (h) (150”, “Btn-Flt3 and 3 μM ATP” for “Btn-Flt3 and 0.4 μM ATP”, “incubation for 120 minutes at” for “incubation for 60 minutes at”, “expressed in RFU (Relative Fluorescence” for “expressed in (Relative Fluorescence”

[3] = target: T1, Ba/F3-Flt3-transfected cells (Homo sapiens, UniProt P36888, cells depend on it, form not given); assay: Ba/F3-Flt3 (minus IL3 or plus IL3) cellular proliferation assay; type: cell-based; conditions: minus IL3
T1 construct: BAF3-FLT3 (MIN IL3) pIC50; other: minus IL3
T1 sequence (P36888 1-993): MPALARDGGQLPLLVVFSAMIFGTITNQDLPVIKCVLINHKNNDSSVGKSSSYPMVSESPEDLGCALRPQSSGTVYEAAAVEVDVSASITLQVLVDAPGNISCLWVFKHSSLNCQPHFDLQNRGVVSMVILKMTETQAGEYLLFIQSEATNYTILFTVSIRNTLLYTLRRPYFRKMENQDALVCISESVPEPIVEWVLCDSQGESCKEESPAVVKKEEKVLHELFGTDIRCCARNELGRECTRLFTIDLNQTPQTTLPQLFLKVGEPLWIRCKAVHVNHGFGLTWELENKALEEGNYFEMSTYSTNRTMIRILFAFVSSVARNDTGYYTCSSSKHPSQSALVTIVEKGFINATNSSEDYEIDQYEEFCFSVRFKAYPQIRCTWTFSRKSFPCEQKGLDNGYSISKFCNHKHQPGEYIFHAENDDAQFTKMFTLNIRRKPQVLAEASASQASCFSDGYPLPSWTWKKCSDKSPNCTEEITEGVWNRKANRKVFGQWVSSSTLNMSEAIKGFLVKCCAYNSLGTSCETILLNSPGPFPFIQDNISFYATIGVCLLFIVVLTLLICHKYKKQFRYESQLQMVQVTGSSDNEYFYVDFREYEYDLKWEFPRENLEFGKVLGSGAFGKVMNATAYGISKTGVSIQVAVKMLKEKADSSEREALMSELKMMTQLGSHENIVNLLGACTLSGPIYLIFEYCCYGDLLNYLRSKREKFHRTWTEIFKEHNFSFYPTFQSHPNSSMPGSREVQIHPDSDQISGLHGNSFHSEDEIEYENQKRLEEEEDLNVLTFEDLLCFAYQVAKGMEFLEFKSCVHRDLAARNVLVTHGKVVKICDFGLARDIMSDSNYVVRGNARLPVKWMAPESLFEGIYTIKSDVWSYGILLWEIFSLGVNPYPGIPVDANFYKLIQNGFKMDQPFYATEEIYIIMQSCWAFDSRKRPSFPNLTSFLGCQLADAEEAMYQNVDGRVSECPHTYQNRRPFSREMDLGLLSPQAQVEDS
Description: (§2) Ba/F3-Flt3 (Minus IL3 or Plus IL3) (Cellular Proliferation Assay)
(§3) In a 384 well plate, 100 nl of compound dilution in DMSO was sprayed before adding 50 μl cell culture medium (phenol red free RPMI-1640, 10% FBS, 2 mM L-Glutamine and 50 μg/ml Gentamycin) containing 20000 cells per well of Ba/F3-Flt3-transfected cells. Cells were put in an incubator at 37° C. and 5% CO2. After 24 hours, 10 μl of Alamar Blue solution (0.5 mM K3Fe(CN)6, 0.5 mM K4Fe(CN)6, 0.15 mM Resazurin and 100 mM Phosphate Buffer) was added to the wells, incubated for 4 hours at 37° C. and 5% CO2 before RFU's (Relative Fluorescence Units) (ex. 540 nm., em. 590 nm.) were measured in a fluororescence plate reader.
(§4) In this assay, the inhibitory effect of different compound concentrations (range 10 μM to 0.1 nM) was determined and used to calculate an IC50 (M) and pIC50 (−log IC50) value.
(§5) As a counterscreen the same experiment was performed in the presence of 10 ng/ml murine IL3.

[4] = tested on: Ba/F3-Flt3-transfected cells; assay: as above; type: cell-based; conditions: 24 h; plus 10 ng/ml murine IL3 (counterscreen); read-out: BAF3_FLT3 (PLUS IL3) pIC50 (converted)
Description: as §2, §3, §4, §5

Chain of FGFR2 (h) (P21802 22-821): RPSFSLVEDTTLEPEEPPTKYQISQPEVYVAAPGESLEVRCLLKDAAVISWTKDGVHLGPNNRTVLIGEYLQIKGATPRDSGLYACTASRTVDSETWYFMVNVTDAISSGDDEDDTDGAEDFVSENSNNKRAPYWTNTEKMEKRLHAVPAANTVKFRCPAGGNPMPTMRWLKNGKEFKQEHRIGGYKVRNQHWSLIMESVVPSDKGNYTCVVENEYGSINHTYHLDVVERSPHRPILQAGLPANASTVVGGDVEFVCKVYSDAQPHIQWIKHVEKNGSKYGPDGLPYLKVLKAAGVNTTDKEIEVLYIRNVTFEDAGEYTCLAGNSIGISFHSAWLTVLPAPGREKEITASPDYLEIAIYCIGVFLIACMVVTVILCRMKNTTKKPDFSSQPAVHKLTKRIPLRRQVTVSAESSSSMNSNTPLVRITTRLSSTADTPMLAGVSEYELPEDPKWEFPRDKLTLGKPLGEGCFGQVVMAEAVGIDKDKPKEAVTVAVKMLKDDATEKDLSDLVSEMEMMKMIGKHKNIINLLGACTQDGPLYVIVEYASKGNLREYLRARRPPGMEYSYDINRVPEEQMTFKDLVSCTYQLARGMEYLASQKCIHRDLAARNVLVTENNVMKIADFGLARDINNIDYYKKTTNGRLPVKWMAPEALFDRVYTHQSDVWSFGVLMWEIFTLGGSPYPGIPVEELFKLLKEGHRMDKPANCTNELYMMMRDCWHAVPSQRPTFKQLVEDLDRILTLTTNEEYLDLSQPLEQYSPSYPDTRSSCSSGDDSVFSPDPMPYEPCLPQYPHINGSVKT

IC50 [1] | IC50 [2] | BAF3-FLT3 (MIN IL3) pIC50 [3] | Structure (SMILES) | IC50 [4]
25.7 nM | > 1000 nM | <5 | COc1cc(OC)cc(C(CCNC(C)C)c2ccc3ncc(-c4cnn(C)c4)nc3c2)c1.Cl (stereo not drawn) [Compound 29, {3-(3,5-Dimethoxy-phenyl)-3-[3-(1-methyl-1H-pyrazol-4-yl)-quinoxalin-6-yl]-propyl}-isopropyl-amine] | > 10000 nM
50.1 nM | 501 nM | <5 | COc1cc(OC)cc(C2(c3ccc4ncc(-c5cnn(C)c5)nc4c3)CC2)c1 [Compound 30] | > 10000 nM
380 nM | > 1000 nM | <5 | COc1cc(OC)cc(C(CCNCC(F)(F)F)c2ccc3ncc(-c4cnn(C)c4)nc3c2)c1.Cl (stereo not drawn) [Compound 33] | > 10000 nM
170 nM | > 1000 nM | <5 | COc1cc(OC)cc(/C(=C/CN(C)C)c2ccc3ncc(-c4cnn(C)c4)nc3c2)c1 [Compound 34] | > 10000 nM
> 1000 nM | > 1000 nM | <5 | CN(C)CCC(c1ccccc1)c1ccc2ncc(-c3cnn(C)c3)nc2c1 (stereo not drawn) [Compound 35] | > 10000 nM
427 nM | > 1000 nM | <5 | COc1cc(OC)cc(C(CCCN)c2ccc3ncc(-c4cnn(C)c4)nc3c2)c1.Cl (stereo not drawn) [Compound 40] | > 10000 nM
